From patent publication US20080032953A1, “Method For Inhibiting Prebiotic Effect Of Food Proteins” (Royal Canin SA,, priority 2004, published 2008)

How the values were obtained:
[1] = test system: anaerobic microflora; assay: Growth of cat oral bacterial microflora in artificial saliva with protein, with or without phosphate: anaerobic count; assay type: cell-based
Protocol: (§1) For all the experiments, the bacterial microflora of the oral cavity was removed, kept in a conservation medium, and then cultured in artificial saliva according to the following protocol:
(§2) Two male cats of “European” race, weighing approximately 5.50 kg, were anesthetized with 0.3 ml of a solution of medetomidine at 0.085 g/100 ml (Domitor, ND) and 0.26 ml of a solution of ketamine at […] (Imalgene 1000, ND).
(§3) In each animal thus immobilized, the saliva was sterilely suctioned with a pipette and the base of the teeth, the gums and the gum pockets were scraped with the back of a sterile scalpel.
(§4) All the samples were transferred and well-diluted in 100 ml of a sterile conservation medium (thiocolate resazurin medium from Biokar supplemented with 25% of glycerol). The conservation medium containing the samples was transferred into tubes with microbeads (Cryobilles, ND from AES). These tubes were then incubated for 6 hours in an incubator at 37° C., in a jar under CO2, before being frozen for subsequent use.
(§5) When subsequently used, each tube is thawed at ambient temperature and then incubated for 12 hours at 37° C., in a jar under CO2. The aerobic and anaerobic bacteria are counted according to the methods described hereinafter. The content of each tube is subsequently diluted with the sterile conservation medium so as to have an inoculum of 5000 (3.70 log10) revivable microorganisms in 0.2 ml.
(§6) The anaerobic microflora is cultured and then counted on a Schaedler medium (Biokar) supplemented with 5% of sterile defibrinated sheep blood, incubated at 37° C., in a jar under CO2, for 48 hours.
(§7) The basic artificial saliva is prepared according to table 31 on page 244 of the manual Biological Handbooks—Metabolism, compiled and edited by Philip L. Altman and Dorothy S. Dittmer, published by Federation of American Societies for Experimental Biology, 1968.
(§8) This basic saliva is supplemented with L-cysteine at a rate of 0.5 g/liter in order to lower its redox potential so as to be able to grow therein both the aerobic bacterial microflora and the anaerobic bacterial microflora. The whole will subsequently be referred to as “artificial saliva”.
(§9) The artificial saliva is dispensed into test tubes at a rate of 20 ml per tube. Each tube is supplemented or not supplemented with the protein, in the presence or absence of the phosphate to be tested. Each treatment is composed of two tubes.
(§10) The whole is autoclaved at 110° C. for 15 minutes.
(§11) Each tube is subsequently inoculated with 0.2 ml of inoculum described above. The whole is incubated in an incubator at 37° C., with shaking.
(§12) After 24, 48 or 72 hours of incubation, the aerobic flora and the anaerobic flora are counted according to the methods described above.
(§13) The result of each treatment is the mean of the counts of two test tubes, expressed as log10 of C.F.U. (Colony Forming Units) per ml of artificial saliva.

[2] = test system: aerobic microflora; assay: Growth of cat oral bacterial microflora in artificial saliva with protein, with or without phosphate: aerobic count; assay type: cell-based
Protocol: as §1, §2, §3, §4, §5
(§14) The aerobic microflora is cultured and then counted on a trypticase soy medium (Biokar) incubated at 37° C. for 48 hours.
as §7, §8, §9, §10, §11, §12, §13

[3] = test system: aerobic microflora; assay: Growth of canine oral flora in artificial saliva with soya hydrolysate, with or without tripolyphosphate: aerobic count; assay type: cell-based, dog; conditions: for Aerobic microflora CFU/ml, 24 hours / Aerobic microflora CFU/ml, 48 hours: Experiment 6, canine flora
Protocol: as §1, §5, §14, §7, §8, §9, §10, §11, §12, §13
(§15) In this assay, the inhibitory effect of sodium tripolyphosphate incorporated at 0, 0.5, 1, 1.5 and 2%, on the prebiotic effect of a dehydrated soya hydrolysate (Nurish 1500 IP, ND from Solea Company, having a titer of 83% of total nitrogenous matter) incorporated into the artificial saliva at 0.5 and at 1%, was tested.
(§16) In this assay, oral microflora taken from a dog were used.

[4] = test system: anaerobic microflora; assay: Growth of canine oral flora in artificial saliva with soya hydrolysate, with or without tripolyphosphate: anaerobic count; assay type: cell-based, dog; conditions: for Anaerobic microflora CFU/ml, 24 hours / Anaerobic microflora CFU/ml, 48 hours: Experiment 6, canine flora
Protocol: as §1, §5, §6, §7, §8, §9, §10, §11, §12, §13, §15, §16

[5] = Experiment 2, MP9007 1%, trisodium pyrophosphate 5%
[6] = Experiment 2, MP9007 1%, trisodium pyrophosphate 10%
[7] = Experiment 2, trisodium phosphate at 5%, MP9007 1%, from 24 hours of incubation
[8] = Experiment 2, trisodium phosphate incorporated at 10%, MP9007 1%
[9] = Experiment 3, MP9007 1%, trisodium pyrophosphate 0.5%
[10] = Experiment 4, MP9007 1%, tripolyphosphate 0.5%
[11] = Experiment 4, MP9007 1%, tripolyphosphate 1%
[12] = Experiment 4, MP9007 1%, tripolyphosphate 1.5%
[13] = Experiment 4, MP9007 1%, tripolyphosphate 2%
[14] = Experiment 4, sodium tripolyphosphate 0.5-2%, MP9007 1%
[15] = Experiment 5, regardless of the amount incorporated (0.5-2%), soya hydrolysate 1%
[16] = Experiment 5, soya hydrolysate 1%, tripolyphosphate 0.5%
[17] = Experiment 5, soya hydrolysate 1%, tripolyphosphate 1%
[18] = Experiment 5, soya hydrolysate 1%, tripolyphosphate 1.5%
[19] = Experiment 5, soya hydrolysate 1%, tripolyphosphate 2%
[20] = tripolyphosphate 0.5%, soya hydrolysate 0.5%
[21] = tripolyphosphate 0.5%, soya hydrolysate 1%
[22] = tripolyphosphate 1%, soya hydrolysate 0.5%
[23] = tripolyphosphate 1%, soya hydrolysate 1%
[24] = tripolyphosphate 1.5%, soya hydrolysate 0.5%
[25] = tripolyphosphate 1.5%, soya hydrolysate 1%
[26] = tripolyphosphate 2%, soya hydrolysate 0.5%
[27] = tripolyphosphate 2%, soya hydrolysate 1%
[28] = Experiment 6, soya hydrolysate 0.5 and 1%
[29] = Experiment 6, tripolyphosphate incorporation rates greater than or equal to 1%

SMILES: O=P([O-])([O-])OP(=O)([O-])O.[Na+].[Na+].[Na+] [Trisodium pyrophosphate, trisodium pyrophosphate]
- Anaerobic microflora CFU/ml, 24 hours [1, 5]: 6.88 log10 CFU/ml
- Anaerobic microflora CFU/ml, 48 hours [1, 5]: 7.46 log10 CFU/ml
- Anaerobic microflora CFU/ml, 72 hours [1, 5]: 6.26 log10 CFU/ml
- Anaerobic microflora CFU/ml, 24 hours [1, 6]: <4.00 log10 CFU/ml
- Anaerobic microflora CFU/ml, 48 hours [1, 6]: <4.00 log10 CFU/ml
- Anaerobic microflora CFU/ml, 72 hours [1, 6]: <4.00 log10 CFU/ml
- Inhibitory effect on the prebiotic effect of MP9007, anaerobic microflora (in words) [1, 7]: very substantial
- Inhibition of the prebiotic effect of the MP9007 protein, anaerobic microflora (in words) [1, 8]: completely inhibited
- Anaerobic microflora CFU/ml, 24 hours [1, 9]: 7.75 log10 CFU/ml
- Aerobic microflora CFU/ml, 24 hours [2, 5]: 6.88 log10 CFU/ml
- Aerobic microflora CFU/ml, 48 hours [2, 5]: 7.56 log10 CFU/ml
- Aerobic microflora CFU/ml, 72 hours [2, 5]: 7.69 log10 CFU/ml
- Aerobic microflora CFU/ml, 24 hours [2, 6]: <4.00 log10 CFU/ml
- Aerobic microflora CFU/ml, 48 hours [2, 6]: 4.88 log10 CFU/ml
- Aerobic microflora CFU/ml, 72 hours [2, 6]: <4.00 log10 CFU/ml
- Inhibitory effect on the prebiotic effect of MP9007, aerobic microflora (in words) [2, 7]: very substantial
- Inhibition of the prebiotic effect of the MP9007 protein, aerobic microflora (in words) [2, 8]: completely inhibited
- Aerobic microflora CFU/ml, 24 hours [2, 9]: 7.75 log10 CFU/ml

SMILES: O=P(O)(O)OP(=O)(O)OP(=O)(O)O [sodium tripolyphosphate]
- Anaerobic microflora CFU/ml, 24 hours [1, 10]: 5.41 log10 CFU/ml
- Anaerobic microflora CFU/ml, 48 hours [1, 10]: 7.04 log10 CFU/ml
- Anaerobic microflora CFU/ml, 24 hours [1, 11]: <4.00 log10 CFU/ml
- Anaerobic microflora CFU/ml, 48 hours [1, 11]: 6.36 log10 CFU/ml
- Anaerobic microflora CFU/ml, 24 hours [1, 12]: 4.98 log10 CFU/ml
- Anaerobic microflora CFU/ml, 48 hours [1, 12]: 6.82 log10 CFU/ml
- Anaerobic microflora CFU/ml, 24 hours [1, 13]: <4.00 log10 CFU/ml
- Anaerobic microflora CFU/ml, 48 hours [1, 13]: <4.00 log10 CFU/ml
- Inhibition of the prebiotic effect of the MP9007 protein, anaerobic microflora (in words) [1, 14]: significantly inhibits
- Inhibition of the prebiotic effect of soya hydrolysate, anaerobic microflora (in words) [1, 15]: virtually inhibits the entire prebiotic effect
- Anaerobic microflora CFU/ml, 24 hours [1, 16]: <4.00 log10 CFU/ml
- Anaerobic microflora CFU/ml, 48 hours [1, 16]: <4.00 log10 CFU/ml
- Anaerobic microflora CFU/ml, 24 hours [1, 17]: <4.00 log10 CFU/ml
- Anaerobic microflora CFU/ml, 48 hours [1, 17]: <4.00 log10 CFU/ml
- Anaerobic microflora CFU/ml, 24 hours [1, 18]: <4.00 log10 CFU/ml
- Anaerobic microflora CFU/ml, 48 hours [1, 18]: <4.00 log10 CFU/ml
- Anaerobic microflora CFU/ml, 24 hours [1, 19]: <4.00 log10 CFU/ml
- Anaerobic microflora CFU/ml, 48 hours [1, 19]: <4.00 log10 CFU/ml
- Aerobic microflora CFU/ml, 24 hours [3, 20]: 7.10 log10 CFU/ml
- Aerobic microflora CFU/ml, 48 hours [3, 20]: 7.54 log10 CFU/ml
- Aerobic microflora CFU/ml, 24 hours [3, 21]: 7.50 log10 CFU/ml
- Aerobic microflora CFU/ml, 48 hours [3, 21]: 7.51 log10 CFU/ml
- Aerobic microflora CFU/ml, 24 hours [3, 22]: <3 log10 CFU/ml
- Aerobic microflora CFU/ml, 48 hours [3, 22]: <3 log10 CFU/ml
- Aerobic microflora CFU/ml, 24 hours [3, 23]: <3 log10 CFU/ml
- Aerobic microflora CFU/ml, 48 hours [3, 23]: 3.17 log10 CFU/ml
- Aerobic microflora CFU/ml, 24 hours [3, 24]: <3 log10 CFU/ml
- Aerobic microflora CFU/ml, 48 hours [3, 24]: <3 log10 CFU/ml
- Aerobic microflora CFU/ml, 24 hours [3, 25]: <3 log10 CFU/ml
- Aerobic microflora CFU/ml, 48 hours [3, 25]: <3 log10 CFU/ml
- Aerobic microflora CFU/ml, 24 hours [3, 26]: <3 log10 CFU/ml
- Aerobic microflora CFU/ml, 48 hours [3, 26]: <3 log10 CFU/ml
- Aerobic microflora CFU/ml, 24 hours [3, 27]: <3 log10 CFU/ml
- Aerobic microflora CFU/ml, 48 hours [3, 27]: <3 log10 CFU/ml
- Inhibition of the prebiotic effect of soya hydrolysate, canine aerobic oral microflora (in words) [3, 28]: inhibits the prebiotic effect
- Inhibitory effect, canine aerobic oral microflora (in words) [3, 29]: particularly substantial
- Anaerobic microflora CFU/ml, 24 hours [4, 20]: 1.92 log10 CFU/ml
- Anaerobic microflora CFU/ml, 48 hours [4, 20]: 5.80 log10 CFU/ml
- Anaerobic microflora CFU/ml, 24 hours [4, 21]: 6.30 log10 CFU/ml
- Anaerobic microflora CFU/ml, 48 hours [4, 21]: 6.24 log10 CFU/ml
- Anaerobic microflora CFU/ml, 24 hours [4, 22]: <3 log10 CFU/ml
- Anaerobic microflora CFU/ml, 48 hours [4, 22]: <3 log10 CFU/ml
- Anaerobic microflora CFU/ml, 24 hours [4, 23]: <3 log10 CFU/ml
- Anaerobic microflora CFU/ml, 48 hours [4, 23]: 3.30 log10 CFU/ml
- Anaerobic microflora CFU/ml, 24 hours [4, 24]: <3 log10 CFU/ml
- Anaerobic microflora CFU/ml, 48 hours [4, 24]: <3 log10 CFU/ml
- Anaerobic microflora CFU/ml, 24 hours [4, 25]: <3 log10 CFU/ml
- Anaerobic microflora CFU/ml, 48 hours [4, 25]: <3 log10 CFU/ml
- Anaerobic microflora CFU/ml, 24 hours [4, 26]: <3 log10 CFU/ml
- Anaerobic microflora CFU/ml, 48 hours [4, 26]: <3 log10 CFU/ml
- Anaerobic microflora CFU/ml, 24 hours [4, 27]: <3 log10 CFU/ml
- Anaerobic microflora CFU/ml, 48 hours [4, 27]: <3 log10 CFU/ml
- Inhibition of the prebiotic effect of soya hydrolysate, canine anaerobic oral microflora (in words) [4, 28]: inhibits the prebiotic effect
- Inhibitory effect, canine anaerobic oral microflora (in words) [4, 29]: particularly substantial
- Aerobic microflora CFU/ml, 24 hours [2, 10]: 5.50 log10 CFU/ml
- Aerobic microflora CFU/ml, 48 hours [2, 10]: 6.90 log10 CFU/ml
- Aerobic microflora CFU/ml, 24 hours [2, 11]: 4.81 log10 CFU/ml
- Aerobic microflora CFU/ml, 48 hours [2, 11]: 6.49 log10 CFU/ml
- Aerobic microflora CFU/ml, 24 hours [2, 12]: 4.84 log10 CFU/ml
- Aerobic microflora CFU/ml, 48 hours [2, 12]: 6.83 log10 CFU/ml
- Aerobic microflora CFU/ml, 24 hours [2, 13]: <4.00 log10 CFU/ml
- Aerobic microflora CFU/ml, 48 hours [2, 13]: <4.00 log10 CFU/ml
- Inhibition of the prebiotic effect of the MP9007 protein, aerobic microflora (in words) [2, 14]: significantly inhibits
- Inhibition of the prebiotic effect of soya hydrolysate, aerobic microflora (in words) [2, 15]: virtually inhibits the entire prebiotic effect
- Aerobic microflora CFU/ml, 24 hours [2, 16]: <4.00 log10 CFU/ml
- Aerobic microflora CFU/ml, 48 hours [2, 16]: <4.00 log10 CFU/ml
- Aerobic microflora CFU/ml, 24 hours [2, 17]: <4.00 log10 CFU/ml
- Aerobic microflora CFU/ml, 48 hours [2, 17]: <4.00 log10 CFU/ml
- Aerobic microflora CFU/ml, 24 hours [2, 18]: <4.00 log10 CFU/ml
- Aerobic microflora CFU/ml, 48 hours [2, 18]: <4.00 log10 CFU/ml
- Aerobic microflora CFU/ml, 24 hours [2, 19]: <4.00 log10 CFU/ml
- Aerobic microflora CFU/ml, 48 hours [2, 19]: <4.00 log10 CFU/ml
